Data: PubChem BioAssay (NCI)
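Here, GI50 denotes the concentration required for 50% inhibition of growth. TGI: concentration producing complete growth inhibition.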

Assays:
Assay in all cases: NCI tumour cell line growth inhibition, 384-well format
[1] = tested on: BT-549 breast
[2] = tested on: NCI-H23 lung
[3] = tested on: HL-60(TB) leukemia
[4] = tested on: SK-MEL-28 melanoma
[5] = tested on: UACC-257 melanoma
[6] = tested on: SF-268 CNS
[7] = tested on: MALME-3M melanoma
[8] = tested on: NCI/ADR-RES ovarian
[9] = tested on: SF-295 CNS
[10] = tested on: A498 renal
[11] = tested on: MOLT-4 leukemia
[12] = tested on: KM12 colon
[13] = tested on: NCI-H322M lung
[14] = tested on: OVCAR-3 ovarian
[15] = tested on: OVCAR-5 ovarian
[16] = tested on: HCT-116 colon
[17] = tested on: UACC-62 melanoma
[18] = tested on: RXF 393 renal
[19] = tested on: NCI-H460 NSCLC
[20] = tested on: MDA-MB-435 melanoma
[21] = tested on: OVCAR-4 ovarian
[22] = tested on: SR leukemia
[23] = tested on: HT29 colon
[24] = tested on: CAKI-1 renal
[25] = tested on: SNB-19 CNS
[26] = tested on: MCF7 breast
[27] = tested on: DU-145 prostate
[28] = tested on: COLO 205 colon
[29] = tested on: MDA-MB-231 breast
[30] = tested on: NCI-H522 lung
[31] = tested on: HOP-92 NSCLC
[32] = tested on: IGROV1 ovarian
[33] = tested on: HS 578T breast
[34] = tested on: SNB-75 CNS
[35] = tested on: ACHN renal
[36] = tested on: PC-3 prostate
[37] = tested on: T-47D breast
[38] = tested on: LOX IMVI melanoma
[39] = tested on: MDA-MB-468 breast
[40] = tested on: EKVX NSCLC
[41] = tested on: SK-OV-3 ovarian
[42] = tested on: TK-10 renal
[43] = tested on: OVCAR-8 ovarian
[44] = tested on: HCC-2998 colon
[45] = tested on: M14 melanoma
[46] = tested on: RPMI-8226 leukemia
[47] = tested on: SF-539 CNS
[48] = tested on: U251 glioblastoma
[49] = tested on: SN12C renal
[50] = tested on: A549 NSCLC
[51] = tested on: SK-MEL-5 melanoma
[52] = tested on: HCT-15 colon
[53] = tested on: HOP-62 NSCLC

## Nc1ccc(-c2ccc3ncc4ccc(=O)n(-c5cccc(C(F)(F)F)c5)c4c3c2)cn1
[1]
  GI50: < 0.01 µM
  TGI: 0.0358 µM
[2]
  GI50: 0.0232 µM
  TGI: 0.4 µM
[3]
  GI50: 0.0179 µM
  TGI: 0.128 µM
[4]
  GI50: 0.026 µM
  TGI: 14.2 µM
[5]
  GI50: 0.0255 µM
  TGI: 0.199 µM
[6]
  GI50: 0.0345 µM
  TGI: 1.14 µM
[7]
  GI50: < 0.01 µM
  TGI: 0.151 µM
[8]
  GI50: 0.0261 µM
  TGI: 1.07 µM
[9]
  GI50: < 0.01 µM
  TGI: 0.196 µM
[10]
  GI50: < 0.01 µM
  TGI: 0.0132 µM
[11]
  GI50: < 0.01 µM
  TGI: 0.0285 µM
[12]
  GI50: < 0.01 µM
  TGI: 2.47 µM
[13]
  GI50: < 0.01 µM
  TGI: 0.0469 µM
[14]
  GI50: < 0.01 µM
  TGI: 0.293 µM
[15]
  GI50: 0.0134 µM
  TGI: 0.0673 µM
[16]
  GI50: 0.0255 µM
  TGI: 0.242 µM
[17]
  GI50: < 0.01 µM
  TGI: 0.565 µM
[18]
  GI50: 0.0175 µM
  TGI: 1.4 µM
[19]
  GI50: < 0.01 µM
  TGI: 0.071 µM
[20]
  GI50: 0.0102 µM
  TGI: 0.0914 µM
[21]
  GI50: < 0.01 µM
  TGI: 0.0389 µM
[22]
  GI50: < 0.01 µM
  TGI: < 0.01 µM
[23]
  GI50: 0.0456 µM
  TGI: 1.32 µM
[24]
  GI50: 0.0105 µM
  TGI: 1.08 µM
[25]
  GI50: 0.0523 µM
  TGI: 2.38 µM
[26]
  GI50: < 0.01 µM
  TGI: 2.74 µM
[27]
  GI50: < 0.01 µM
  TGI: 0.378 µM
[28]
  GI50: 0.0205 µM
  TGI: 0.103 µM
[29]
  GI50: < 0.01 µM
  TGI: 12.5 µM
[30]
  GI50: < 0.01 µM
  TGI: 0.168 µM
[31]
  GI50: 0.0261 µM
  TGI: 1 µM
[32]
  GI50: < 0.01 µM
  TGI: < 0.01 µM
[33]
  GI50: < 0.01 µM
  TGI: 0.0508 µM
[34]
  GI50: < 0.01 µM
  TGI: 1.15 µM
[35]
  GI50: < 0.01 µM
  TGI: 0.168 µM
[36]
  GI50: < 0.01 µM
  TGI: 0.122 µM
[37]
  GI50: < 0.01 µM
  TGI: 1.31 µM
[38]
  GI50: < 0.01 µM
  TGI: 0.0334 µM
[39]
  GI50: < 0.01 µM
  TGI: 0.171 µM
[40]
  GI50: < 0.01 µM
  TGI: 0.0629 µM
[41]
  GI50: < 0.01 µM
  TGI: 1.02 µM
[42]
  GI50: < 0.01 µM
  TGI: 0.0402 µM
[43]
  GI50: 0.0114 µM
  TGI: 1.37 µM
[44]
  GI50: 0.0105 µM
  TGI: 0.318 µM
[45]
  GI50: < 0.01 µM
  TGI: 0.136 µM
[46]
  GI50: < 0.01 µM
  TGI: < 0.01 µM
[47]
  GI50: < 0.01 µM
  TGI: 0.389 µM
[48]
  GI50: 0.0301 µM
  TGI: 1.19 µM
[49]
  GI50: < 0.01 µM
  TGI: 0.086 µM
[50]
  GI50: < 0.01 µM
  TGI: 1.07 µM
[51]
  GI50: < 0.01 µM
  TGI: 0.0245 µM
[52]
  GI50: < 0.01 µM
  TGI: 1.08 µM
[53]
  GI50: < 0.01 µM
  TGI: 0.0463 µM
